The values below come from patent US4485109A, “4-Aryl-4-piperidinecarbinols” (E. I. Du Pont de Nemours and Company, priority 1983, dated 1984).

Read-outs that look alike come from different tables or passages of the source.

The assay has as its system tetrabenazine-induced depression. Kind of assay: Antagonism (prevention) of tetrabenazine-induced sedation and depression in mice, orally. The assay is classed as in vivo, mice (Carworth CF1 S female). To be noted: Mus musculus, 1 h, tetrabenazine 32 mg/kg i.p. 30 min after compound. From the text: A standard procedure for detecting and comparing the antidepressant activity of the compounds of this invention, for which there is good correlation with human efficacy, is the prevention of tetrabenazine-induced sedation and depression in mice. (Everett, "The Dopa Response Potentiation Test and Its Use in Screening for Antidepressant Drugs", pp. 164-167 in Antidepressant Drugs [Proceedings of the First International Symposium], S. Garattini and M. N. G. Dukes (editors), 1967).
Groups of 10 Carworth CF1 S female mice, 18-21 g each, each fasted 1.5 h and were intubated with antagonist compounds at oral doses, such as 0, 1, 3, 9, 27 and 81 mg/kg in 0.20 mL of 1% Methocel® (methylcellulose).The mice were challenged 30 minutes later with tetrabenazine (as the methanesulfonate), 32 mg/kg intraperitoneally (dissolved in 0.20 mL 0.05% aqueous KCl at pH 2.0). One hour after administration of antagonist (30 minutes after administration of tetrabenazine) the mice were examined for signs of exploratory activity and ptosis (eye lid closure). Normal exploratory activity (relief from sedation) was recorded when a mouse, lifted by the tail from a group of 10 in a testing box and placed on a stainless steel testing box lid (12.5 inch (31.8 cm) by 8 inch (20.3 cm) with 0.33 inch mesh), either turned its head horizontally 30° in both directions or moved to the edge of the screen within 10 seconds after being placed on the screen. Relief from ptosis was recorded when, at exactly two seconds after placing the mouse facing the observer, lid closure was less than 50% in both eyes.

The mark [1] stands for this setting: po, read-out: ORAL ED50 for prevention of exploratory loss, mice, oral, at one hour post-drug.
Where [2] appears, read: po, read-out: ORAL ED50 for prevention of ptosis, mice, oral, at one hour post-drug.

`CCOc1cccc(C2(C(C)(C)O)CCN(C)CC2)c1` [Example 40, 4-(3'-Ethoxyphenyl)-α,α,1-trimethyl-4-piperidinemethanol]: the ED50 under setting [1] was 0.9 mg/kg and the ED50 under setting [2] is 0.9 mg/kg.

For `COc1cccc(C2(C3(O)CCCC3)CCN(Cc3ccccc3)CC2)c1OC` [Example 38, 1-[1'-Benzyl-4'-(2",3"-dimethoxyphenyl)-4'-piperidinyl]cyclopentanol], the ED50 was > 81 mg/kg under setting [1] and > 81 mg/kg under setting [2].

For `COc1cccc(C2(C3(O)CCC3)CCN(C)CC2)c1` [Example 22, 1-[1'-Methyl-4'-(3"-methoxyphenyl)-4'-piperidinyl]cyclobutanol], the ED50 was found to be 0.92 mg/kg under setting [1] and 0.67 mg/kg under setting [2].

As to `Cc1ccc(C2(C(C)(C)O)CCN(C)CC2)cc1C` [Example 13, 4-(4'-o-Xylyl)-α,α,1-trimethyl-4-piperidinemethanol], the ED50 is, setting by setting: under setting [1], 0.3 mg/kg; under setting [2], 0.23 mg/kg.

Take `CN1CCC(c2ccc(-c3ccccc3)cc2)(C(C)(C)O)CC1` [Example 42, 4-(4'-Biphenylyl)-α,α,1-trimethyl-4-piperidinemethanol]: the ED50 is, setting by setting: under setting [1], 1.5 mg/kg; under setting [2], 1 mg/kg.

As to `Cc1cccc(C2(C(C)(C)O)CCN(C)C(C)C2)c1` (stereo not drawn) [Example 44, 4-(3'-Tolyl)-α,α,1,2-tetramethyl-4-piperidinemethanol], the ED50 reads like this: under setting [1], 0.33 mg/kg; under setting [2], 0.33 mg/kg.

As to `CC1CCC(O)(C2(c3cccc(C(F)(F)F)c3)CCN(C)CC2)C1` (single isomer, unassigned; (-)) [Example 47, (-)-cis and trans-3-Methyl-1-[1'-methyl-4'-(3"-trifluoromethylphenyl)-4'-piperidinyl]cyclopentanol], the ED50 runs as follows: under setting [1], < 1 mg/kg; under setting [2], < 1 mg/kg.

For `COc1ccc(C2(C(C)(C)O)CCN(C)CC2)cc1` [Example 19, 4-(4'-Methoxyphenyl)-α,α,1-trimethyl-4-piperidinemethanol], the ED50 is 1.1 mg/kg under setting [1] and 0.33 mg/kg under setting [2].

As for `CCC(O)(CC)C1(c2cccc(OC)c2)CCN(C)CC1` [Example 18, 4-(3'-Methoxyphenyl)-α,α-diethyl-1-methyl-4-piperidinemethanol], the ED50 under setting [1] turned out to be 0.71 mg/kg and the ED50 under setting [2] stood at 0.71 mg/kg.

On to `CN(C)CCC=C1c2ccccc2CCc2ccccc21` [Amtriptyline, reference compound], for which the ED50 is, setting by setting: (mice, oral, at one hour post-drug, read-out: ORAL ED50 for prevention of exploratory loss) 2.7 mg/kg; (mice, oral, at one hour post-drug, read-out: ORAL ED50 for prevention of ptosis) 0.7 mg/kg.

Take `COc1ccc(OC)c(C2(C(C)(C)O)CCN(C)CC2)c1` [Example 29, 4-(2',5'-Dimethoxyphenyl)-α,α,1-trimethyl-4-piperidinemethanol]: the ED50 came out at 0.99 mg/kg under setting [1] and 0.86 mg/kg under setting [2].

As for `Cc1ccc(C2(C(C)(C)O)CCN(C)CC2)s1` [Example 25, 4-(5'-Methyl-2'-thienyl)-α,α,1-trimethyl-4-piperidinemethanol], the ED50 under setting [1] came to 0.99 mg/kg and the ED50 under setting [2] was found to be 0.69 mg/kg.

With `CN1CCC(c2ccc(F)cc2)(C(C)(C)O)CC1` [Example 5, 4-(4'-Fluorophenyl)-α,α,1-trimethyl-4-piperidinemethanol], the ED50 under setting [1] was 0.48 mg/kg and the ED50 under setting [2] was determined as 0.33 mg/kg.

`CN1CCC(c2ccccc2)(C(C)(C)O)CC1` [Example 1, 4-Phenyl-α,α,1-trimethyl-4-piperidinemethanol]: the ED50 by setting is: under setting [1], 5.6 mg/kg; under setting [2], 0.78 mg/kg.

As for `CN1CCC(c2cccnc2)(C(C)(C)O)CC1` [Example 26, 4-(3'-Pyridyl)-α,α,1-trimethyl-4-piperidinemethanol], the ED50 runs as follows: under setting [1], 29 mg/kg; under setting [2], 18 mg/kg.

Regarding `CN1CCC(c2cccn2C)(C(C)(C)O)CC1` [Example 24, 4-(1'-Methyl-2'-pyrrolyl)-α,α,1-trimethyl-4-piperidinemethanol], the ED50 reads like this: under setting [1], 1.2 mg/kg; under setting [2], 0.78 mg/kg.

In the case of `Cc1ccc(C2(C(C)(C)O)CCN(C)CC2)cc1` [Example 11, 4-(4'-Tolyl)-α,α,1-trimethyl-4-piperidinemethanol], the ED50 runs as follows: under setting [1], 0.69 mg/kg; under setting [2], 0.57 mg/kg.

Turning to `COc1cccc(C2(C(C)(C)O)CCN(C)CC2)c1OC` [Example 20, 4-(2',3'-Dimethoxyphenyl)-α,α,1-trimethyl-4-piperidinemethanol], the ED50 reads like this: under setting [1], 4.6 mg/kg; under setting [2], 2.1 mg/kg.

On to `COc1cccc(C2(C3(O)CCCC3)CCN(C)CC2)c1` [Example 34, 1[1'-Methyl-4'-(3"-methoxyphenyl)-4'-piperidine]cyclopentanol], for which the ED50 is, setting by setting: under setting [1], 0.48 mg/kg; under setting [2], 0.45 mg/kg.

Consider `COc1cccc(C2(C(C)(C)O)CCNCC2)c1` [Example 14, 4-(3'-Methoxyphenyl)-α,α-dimethyl-4-piperidinemethanol], for which the ED50 runs as follows: under setting [1], 4.4 mg/kg; under setting [2], 2.7 mg/kg.

For the compound `CN(C)CCCN1c2ccccc2CCc2ccccc21` [Imipramine, reference compound], the ED50 under setting [1] came to 2.2 mg/kg and the ED50 under setting [2] turned out to be 0.94 mg/kg.

As to `CN1CCC(c2cccc(-c3ccccc3)c2)(C(C)(C)O)CC1` [Example 36, 4-(3'-Biphenylyl)-α,α,1-trimethyl-4-piperidinemethanol], the 50% effective dose (ED50) is 1.1 mg/kg under setting [1] and 0.66 mg/kg under setting [2].

As for `COc1cccc(C2(C3(O)CCCC3)CCN(C)CC2)c1OC` [Example 3, 1-[1'-Methyl-4'-(2",3"-dimethoxyphenyl)-4'-piperidinyl]cyclopentanol], the ED50 was determined as 14 mg/kg under setting [1] and 2.8 mg/kg under setting [2].

As to `Cc1cc(C)cc(C2(C(C)(C)O)CCN(C)CC2)c1` [Example 12, 4-(5'-m-Xylyl)-α,α,1-trimethyl-4-piperidinemethanol], the ED50 reads like this: under setting [1], 0.11 mg/kg; under setting [2], 0.064 mg/kg.

With `CN1CCC(c2ccc(N(C)C)cc2)(C(C)(C)O)CC1` [Example 33, 4-(4'-Dimethylaminophenyl)-α,α,1-trimethyl-4-piperidinemethanol], the ED50 was 0.78 mg/kg under setting [1] and 0.35 mg/kg under setting [2].

Consider `COc1cccc(C2(C(C)(C)O)CCN(C)CC2C)c1` (stereo not drawn) [Example 43, 4-(3'-Methoxyphenyl)-α,α,1,3-tetramethyl-4-piperidinemethanol], for which the ED50 under setting [1] came to 7.2 mg/kg and the ED50 under setting [2] was 5.8 mg/kg.

As for `COc1cccc(C2(C3(O)CCCCC3)CCN(C)CC2)c1` [Example 35, 1[1'-Methyl-4'-(3"-methoxyphenyl)-4'-piperidine]cyclohexanol], the ED50 worked out at 1.4 mg/kg under setting [1] and 1.1 mg/kg under setting [2].

Turning to `COc1ccccc1C1(C(C)(C)O)CCN(C)CC1` [Example 15, 4-(2'-Methoxyphenyl)-α,α,1-trimethyl-4-piperidinemethanol], the ED50 runs as follows: under setting [1], 2.3 mg/kg; under setting [2], 0.57 mg/kg.

Consider `CSc1ccc(C2(C(C)(C)O)CCN(C)CC2)cc1` [Example 21, 4-(4'-Methylthiophenyl)-α,α,1-trimethyl-4-piperidinemethanol], for which the ED50 under setting [1] is 1.3 mg/kg and the ED50 under setting [2] stood at 1.3 mg/kg.

For the compound `CC(C)(O)C1(c2cccc(C(F)(F)F)c2)CCN2CCCC2C1` (stereo not drawn) [Example 45, 7-(3'-Trifluoromethylphenyl)-α,α-dimethyl-7-indolizidinemethano], the ED50 is, setting by setting: under setting [1], < 0.33 mg/kg; under setting [2], 0.48 mg/kg.

Consider `CC1CCC(O)(C2(c3cccc(C(F)(F)F)c3)CCN(C)CC2)C1` (racemic) [Example 46, (±)-cis and trans-3-Methyl-1-[1'-methyl-4'-(3"-trifluoromethylphenyl)-4'-piperidinyl]cyclopentanol], for which the ED50 is, setting by setting: under setting [1], < 1 mg/kg; under setting [2], < 1 mg/kg.

On to `COc1cccc(C2(C3(O)CCCCCC3)CCN(C)CC2)c1` [Example 27, 1-[1'-Methyl-4'-(3"-methoxyphenyl)-4'-piperidinyl]cycloheptanol], for which the ED50 is, setting by setting: under setting [1], 1.4 mg/kg; under setting [2], 0.9 mg/kg.

Turning to `COc1cccc(C2(C3(O)CCCCCCC3)CCN(C)CC2)c1` [Example 28, 1-[1'-Methyl-4'-(3"-methoxyphenyl)-4'-piperidinyl]cyclooctanol], the ED50 under setting [1] was determined as 3.8 mg/kg and the ED50 under setting [2] turned out to be 1.7 mg/kg.

For `COc1cccc(C2(C3(O)CCCCC3)CCN(C)CC2)c1OC` [Example 23, 1-[1'-Methyl-4'-(2",3"-dimethoxyphenyl)-4'-piperidinyl]cyclohexanol], the ED50 amounted to 38 mg/kg under setting [1] and 17 mg/kg under setting [2].

As for `Cc1ccccc1C1(C(C)(C)O)CCN(C)CC1` [Example 9, 4-(2'-Tolyl)-α,α,1-trimethyl-4-piperidinemethanol], the ED50 came to 0.48 mg/kg under setting [1] and 0.33 mg/kg under setting [2].
